Measurements as given in PubChem BioAssay (NCI).
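Exposure lasted 48 hours, with cells grown in 96-well plates and compounds tested at five concentrations. At the GI50, growth is halved. Definition used: TGI = concentration required for complete inhibition of growth.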

Experiments:
Assay in all cases: NCI anticancer screen, dose series, 48 h
SR leukemia = tested on: SR leukemia
SNB-19 CNS = tested on: SNB-19 CNS
HT29 colon = tested on: HT29 colon
NCI-H460 lung = tested on: NCI-H460 lung
OVCAR-8 ovarian = tested on: OVCAR-8 ovarian
HL-60(TB) leukemia = tested on: HL-60(TB) leukemia
SK-MEL-2 melanoma = tested on: SK-MEL-2 melanoma
SNB-75 CNS = tested on: SNB-75 CNS
MCF7 breast = tested on: MCF7 breast
BT-549 breast = tested on: BT-549 breast

Structure (SMILES) | TGI (SR leukemia) | TGI (SNB-19 CNS) | TGI (HT29 colon) | TGI (NCI-H460 lung) | TGI (OVCAR-8 ovarian) | TGI (HL-60(TB) leukemia) | TGI (SK-MEL-2 melanoma) | TGI (SNB-75 CNS) | GI50 (MCF7 breast) | TGI (MCF7 breast) | GI50 (SR leukemia) | GI50 (SNB-19 CNS) | GI50 (NCI-H460 lung) | GI50 (OVCAR-8 ovarian) | GI50 (SK-MEL-2 melanoma) | TGI (BT-549 breast)
O=c1nc2cc(-c3ccccc3)[nH]c2nn1-c1c(Cl)cc(Cl)cc1Cl | 62.5 µM | > 100 µM | 88.7 µM | > 100 µM | 95.8 µM | 57.1 µM | 94 µM |  |  |  |  |  |  |  |  | 
O=[N+]([O-])c1ccc(Cl)c(C2SCc3nc4ccccc4n32)c1 (stereo unspecified) | > 100 µM | > 100 µM | > 100 µM | 81.1 µM | > 100 µM | 78.5 µM | > 100 µM | 89.9 µM |  |  |  |  |  |  |  | 
COc1ccc(O)c2c1C(=O)CCCC2=O |  | > 100 µM | > 100 µM | > 100 µM | > 100 µM | > 100 µM | > 100 µM |  |  |  |  |  |  |  |  | 
Cc1nc(C(N)=S)sc1C(=O)/C=C/c1cccc(O)c1 |  |  | > 100 µM | > 100 µM | > 100 µM | > 100 µM | > 100 µM | > 100 µM |  |  |  |  |  |  |  | 
COc1ccc(NC(=O)C(=O)C2NC(=S)NC2=O)c(OC)c1 (stereo unspecified) |  | > 100 µM | > 100 µM | > 100 µM | > 100 µM | > 100 µM | > 100 µM | > 100 µM |  |  |  |  |  |  |  | 
COc1cc2c(cc1C)n(O)c(C)c(C(=O)C/C(=N/NC(=O)C[N+](C)(C)C)C(=O)Nc1cccc(Cl)c1C)[n+]2=O | > 100 µM | > 100 µM | > 100 µM | > 100 µM | > 100 µM | > 100 µM | > 100 µM | > 100 µM |  |  |  |  |  |  |  | 
C=C(C)C1/C=C(/C(C)C)CC[C@]2(C)O[C@@H]2CC[C@H](C)CC1=O (stereo partly specified) | 58.5 µM | > 100 µM |  | > 100 µM | > 100 µM |  | > 100 µM |  | 50.7 µM | > 100000 nM | 19.2 µM | > 100 µM | 50.3 µM | 58.3 µM | > 100 µM | 
CCC1(CN(C)C)CC/C(=C\c2ccc3c(c2)OCO3)C1=O (stereo unspecified) |  | > 100 µM | > 100 µM |  | > 100 µM | > 100 µM | > 100 µM | > 100 µM |  |  |  |  |  |  |  | 
COC(=O)C1=C(C(=O)OC)C2(C(=O)OC)OC1(OC)C(C1(C(=O)OC)C(C(=O)OC)=C1C(=O)OC)=C2C(=O)OC (stereo unspecified) | > 100 µM | > 100 µM | > 100 µM | > 100 µM | > 100 µM | > 100 µM | > 100 µM | > 100 µM |  |  |  |  |  |  |  | 
COc1cc(C2C(C(=O)Nc3ccccc3)=C(C)NC(C)=C2C(=O)Nc2ccccc2)ccc1O | 93.3 µM | > 100 µM | 33.8 µM | > 100 µM | 85.1 µM | 54.2 µM | 76.8 µM | > 100 µM |  |  |  |  |  |  |  | 
Cc1cc(C)nc(NS(=O)(=O)c2ccc(NC(=O)c3cccc4cc5ccccc5nc34)cc2)n1 |  | 90.7 µM | > 100 µM | > 100 µM | > 100 µM |  | 85.6 µM | > 100 µM |  |  |  |  |  |  |  | 
Cc1ccc(Nc2ccc(Nc3ccc(C)cc3)c3c2C(=O)c2c(O)ccc(O)c2C3=O)cc1 |  | > 100 µM |  | > 100 µM | > 100 µM | > 100 µM | > 100 µM | > 100 µM |  |  |  |  |  |  |  | 
Fc1ccccc1C1CC(C(c2ccccc2)c2ccccc2)=Nc2ccccc2S1 (stereo unspecified) |  | 32.2 µM | 26.3 µM | 23.2 µM | 48.5 µM | 16.6 µM | 21.6 µM | 5.48 µM |  |  |  |  |  |  |  | 
CC1=C2C(c3ccccc3)(c3ccccc3)C3C=CC2(C=N3)N(C(=O)NC2CCCCC2)C1=O (stereo unspecified) | 37.7 µM | 32.9 µM |  |  | 33.6 µM | 30.2 µM |  |  |  |  |  |  |  |  |  | 
O=[As](O)(O)c1ccc(Cc2ccc([As](=O)(O)O)cc2)cc1 |  | 2.65 µM | 2.38 µM | 2.43 µM | 1.35 µM | 3.98 µM | 2.87 µM | 3.12 µM |  | 1190 nM |  |  |  |  |  | 3.09 µM
COc1ccc2c(c1)CC[C@@H]1C2CC[C@]2(C)C(=O)NC(=O)CC12 (stereo partly specified) |  | > 100 µM | > 100 µM | > 100 µM | > 100 µM | > 100 µM | > 100 µM |  |  |  |  |  |  |  |  | 
CCN(CC)CCCNC(=O)Cc1ccccc1Nc1c(Cl)cccc1Cl | 26 µM | 31.8 µM | 17.6 µM |  | 31.9 µM | 27.5 µM |  | 21.8 µM |  |  |  |  |  |  |  | 
CC[C@@H]1OC2(C)CC(S(=O)(=O)c3ccccc3)CC1O2 (stereo partly specified) | > 100 µM | > 100 µM | > 100 µM | > 100 µM | > 100 µM | > 100 µM | > 100 µM | > 100 µM |  |  |  |  |  |  |  | 
COc1ccc(C2S/C(=C\c3ccc(OC)cc3OC)C(=O)N2NC(=O)Cc2ccccc2)cc1 (stereo unspecified) | > 100 µM |  | > 100 µM | > 100 µM | > 100 µM | > 100 µM | > 100 µM | > 100 µM |  |  |  |  |  |  |  | 
Cc1ccc(NC(=O)C(=O)Cc2nc3ccccc3o2)c(C)c1 |  | > 100 µM | > 100 µM | > 100 µM | > 100 µM |  | > 100 µM | > 100 µM |  |  |  |  |  |  |  | 
